Measurements published in patent publication US6660246B1, “Ligands and metal complexes thereof” (Bracco International, BV, priority 1994, dated 2003).
Structures can show the parent of a compound that is named as a salt.

For `C/C(=N\N)C(C)(C)NCCCNC(C)(C)/C(C)=N/O` [Example 1, 3,3,9,9-Tetramethyl-4,8-diazaundecane-2,10-dione 2-Hydrazone 10-Oxime], the melting point was 125 to 126 °C.
`C/C(=N\N)C(C)(C)NCCCNC(C)(C)/C(C)=N/N` [Example 5, 3,3,9,9-Tetramethyl-4,8-diazaundecane-2,10-dione Bishydrazone] gave a melting point of 95 to 96 °C.
Compound `CN/N=C(\C)C(C)(C)NCCCNC(C)(C)/C(C)=N/O` (as salt: hydrochloride) [Example 2, 3,3,9,9-Tetramethyl-4,8-diazaundecane-2,10-dione 2-(2-Methylhydrazone) 10-Oxime] has a melting point of 175 to 177 °C.
Work on `C/C(=N\O)C(C)(C)NCCNC(C)(C)/C(C)=N/Nc1ccccc1` [Example 6, 3,3,8,8-Tetramethyl-4,8-diazadecane-2,9-dione 2-(2-Phenylhydrazone) 9-Oxime] yielded a melting point of 95 to 97 °C.
`C/C(=N\O)C(C)(C)NCCCNC(C)(C)/C(C)=N/NC(=O)c1ccccc1` (as salt: trifluoroacetate) [Example 4, 3,3,9,9-Tetramethyl-4,8-diazaundecane-2,10-dione 2-(2-Benzoylhydrazone) 10-Oxime] showed a melting point of 95 to 96 °C.
`C/C(=N\O)C(C)(C)NCCCNC(C)(C)/C(C)=N/Nc1ccccc1` [Example 3, 3,3,9,9-Tetramethyl-4,8-diazaundecane-2,10-dione 2-(2-Phenyl-hydrazone) 10-Oxime] showed a melting point of 145 to 146 °C.
